In PMC6175823, “Identification of novel acetylcholinesterase inhibitors designed by pharmacophore-based virtual screening, molecular docking and bioassay” (Scientific Reports, 2018):
“Also recorded” adds a separate entry of the source.

Molecular target: T1, Acetylcholinesterase from electrophorus electricus (electric eel) (Electrophorus electricus, UniProt O42275)
T1 construct: purchased Sigma (St. Louis, MO)
Test: biochemical
Conditions: modified Ellman's method, eeAChE; read-out: AchE IC50
Text: Acetylcholinesterase from electrophorus electricus (electric eel), horse butyrylcholinesterase, Acetylcholine iodide, S-butyrylthiocholine chloride and 5,5′-dithio-bis-nitrobenzoic acid (DTNB) were purchased from the Sigma (St. Louis, MO) while bovine serum albumin (BSA) purchased from Research and Diagnostic Technology (RDT). Buffers and other chemicals were purchases from pure chemicals as a pure experimental grade. All the reagents and experimental conditions were same as described by previous reports. […] Acetylcholinesterase and butyrylcholinesterase inhibition was performed spectrometrically using acetylthiocholine and butyrylthiocholine as a substrate. Experiment was performed with slight modification in the method described by Ellman et al.[78]. Then, […] sodium phosphate buffer (pH 8.0), enzyme preparation and different concentration of test compound was mixed and incubated for 30 min followed by the addition of DTNB and the reactions was initiated by adding respective enzyme substrate like acetylthiocholine iodide, butyrylthiocholine chloride for Acetylcholinesterase and butyrylcholinesterase inhibition assay respectively. The hydrolysis of acetylthiocholine or butyrylthiocholineyield a dark yellow 5-thio-2-nitrobenzoate anion because of the reaction between DTNB with enzyme and enzyme substrate. […] Percentage inhibition was calculated taking negative control as 100%.

T1 sequence (O42275 24-633): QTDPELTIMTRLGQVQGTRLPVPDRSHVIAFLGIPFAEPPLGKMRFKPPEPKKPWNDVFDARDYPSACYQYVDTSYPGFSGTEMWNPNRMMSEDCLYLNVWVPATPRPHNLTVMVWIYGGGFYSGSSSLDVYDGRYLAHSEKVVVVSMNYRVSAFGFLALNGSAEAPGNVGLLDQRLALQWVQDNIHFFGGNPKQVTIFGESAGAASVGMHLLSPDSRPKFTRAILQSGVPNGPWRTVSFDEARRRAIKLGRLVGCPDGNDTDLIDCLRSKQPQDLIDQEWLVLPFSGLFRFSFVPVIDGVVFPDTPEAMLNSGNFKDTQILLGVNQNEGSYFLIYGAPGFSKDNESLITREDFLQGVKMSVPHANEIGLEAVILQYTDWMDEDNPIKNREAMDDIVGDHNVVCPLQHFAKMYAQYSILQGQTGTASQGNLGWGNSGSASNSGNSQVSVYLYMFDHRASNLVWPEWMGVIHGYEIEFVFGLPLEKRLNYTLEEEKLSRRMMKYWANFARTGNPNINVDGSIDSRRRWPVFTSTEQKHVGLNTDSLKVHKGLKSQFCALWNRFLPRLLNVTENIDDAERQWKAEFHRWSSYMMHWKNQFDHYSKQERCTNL

Structure (SMILES)	IC50 [µM]
COc1ccccc1OCCN(CC(=O)CC(O)c1cccc(-c2ccccc2)c1)Cc1ccccc1 (stereo not drawn) [5c, 4-([1,1′-biphenyl]-3-yl)-1-(benzyl(2-(2-methoxyphenoxy)ethyl)amino)-4-hydroxybutan-2-one]	58.3
COc1ccccc1OCCN(Cc1ccccc1)CC(O)CC(O)c1cccc2[nH]c3ccccc3c12 (stereo not drawn) [6a, 4-(benzyl(2-(2-methoxyphenoxy)ethyl)amino)-1-(9H-carbazol-4-yl)butane-1,3-diol]	66

Molecular target: T2, horse butyrylcholinesterase (Equus caballus, UniProt P81908)
T2 construct: purchased Sigma (St. Louis, MO)
Test: biochemical
Assay type: biochemical
Conditions: modified Ellman's method, horse BuChE; read-out: bAchE IC50
Text: Acetylcholinesterase from electrophorus electricus (electric eel), horse butyrylcholinesterase, Acetylcholine iodide, S-butyrylthiocholine chloride and 5,5′-dithio-bis-nitrobenzoic acid (DTNB) were purchased from the Sigma (St. Louis, MO) while bovine serum albumin (BSA) purchased from Research and Diagnostic Technology (RDT). Buffers and other chemicals were purchases from pure chemicals as a pure experimental grade. All the reagents and experimental conditions were same as described by previous reports. […] Acetylcholinesterase and butyrylcholinesterase inhibition was performed spectrometrically using acetylthiocholine and butyrylthiocholine as a substrate. Experiment was performed with slight modification in the method described by Ellman et al.[78]. Then, […] sodium phosphate buffer (pH 8.0), enzyme preparation and different concentration of test compound was mixed and incubated for 30 min followed by the addition of DTNB and the reactions was initiated by adding respective enzyme substrate like acetylthiocholine iodide, butyrylthiocholine chloride for Acetylcholinesterase and butyrylcholinesterase inhibition assay respectively. The hydrolysis of acetylthiocholine or butyrylthiocholineyield a dark yellow 5-thio-2-nitrobenzoate anion because of the reaction between DTNB with enzyme and enzyme substrate. […] Solvent used for compound dilution was used for the negative control. Percentage inhibition was calculated taking negative control as 100%.

T2 sequence (P81908 whole entry): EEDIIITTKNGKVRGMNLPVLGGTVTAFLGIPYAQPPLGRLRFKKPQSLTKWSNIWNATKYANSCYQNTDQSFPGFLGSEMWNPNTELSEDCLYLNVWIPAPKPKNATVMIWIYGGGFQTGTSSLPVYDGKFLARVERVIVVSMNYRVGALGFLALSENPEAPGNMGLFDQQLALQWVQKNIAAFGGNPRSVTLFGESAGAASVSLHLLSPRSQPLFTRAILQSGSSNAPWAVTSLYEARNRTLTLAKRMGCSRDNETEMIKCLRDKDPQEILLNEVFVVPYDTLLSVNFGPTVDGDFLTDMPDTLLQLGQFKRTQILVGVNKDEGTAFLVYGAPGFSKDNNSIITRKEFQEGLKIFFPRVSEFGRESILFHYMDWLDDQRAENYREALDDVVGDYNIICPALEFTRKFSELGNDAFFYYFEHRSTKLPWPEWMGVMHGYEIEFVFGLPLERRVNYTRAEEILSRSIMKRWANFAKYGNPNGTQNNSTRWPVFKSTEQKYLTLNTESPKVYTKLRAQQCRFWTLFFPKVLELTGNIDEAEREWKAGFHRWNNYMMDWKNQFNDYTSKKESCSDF

Structure (SMILES)	IC50 [µM]
COc1ccccc1OCCN(CC(=O)CC(O)c1cccc(-c2ccccc2)c1)Cc1ccccc1 (stereo not drawn) [5c, 4-([1,1′-biphenyl]-3-yl)-1-(benzyl(2-(2-methoxyphenoxy)ethyl)amino)-4-hydroxybutan-2-one]	> 500
COc1ccccc1OCCN(Cc1ccccc1)CC(O)CC(O)c1cccc2[nH]c3ccccc3c12 (stereo not drawn) [6a, 4-(benzyl(2-(2-methoxyphenoxy)ethyl)amino)-1-(9H-carbazol-4-yl)butane-1,3-diol]	> 500

Same assay, conditions: result in words

Structure (SMILES)	effect against BchE
COc1ccccc1OCCN(CC(=O)CC(O)c1cccc(-c2ccccc2)c1)Cc1ccccc1 (stereo not drawn) [5c, 4-([1,1′-biphenyl]-3-yl)-1-(benzyl(2-(2-methoxyphenoxy)ethyl)amino)-4-hydroxybutan-2-one]	without inhibiting; also recorded: did not showed the effect
COc1ccccc1OCCN(Cc1ccccc1)CC(O)CC(O)c1cccc2[nH]c3ccccc3c12 (stereo not drawn) [6a, 4-(benzyl(2-(2-methoxyphenoxy)ethyl)amino)-1-(9H-carbazol-4-yl)butane-1,3-diol]	without inhibiting; also recorded: did not showed the effect

System: AChE
Test: not given
Conditions: ChEMBL dataset, Ellman assay ref 43; cited from earlier work

Structure (SMILES)	Exp. pIC50
O=C1c2ccccc2C(=O)N1CCC1CCN(Cc2ccccc2)CC1 [CHEMB L106891]	7.097
O=C(CCC1CCN(Cc2ccccc2)CC1)c1ccc2c(c1)NCCC2 [CHEMBL73593]	6.785
O=C(CCC1CCN(Cc2ccccc2)CC1)c1ccc2c(c1)CCN2 [CHEMBL75110]	7.699
CN1CCCc2ccc(C(=O)CCC3CCN(Cc4ccccc4)CC3)cc21 [CHEMBL76470]	7.444
N#Cc1ccc2c(CCC3CCN(Cc4ccccc4)CC3)noc2c1 [CHEMBL92775]	6.996
Cc1cc(-c2ccccc2)n[nH]c1=NCCC1CCN(Cc2ccccc2)CC1 [CHEMBL94054]	6.495
O=C1Cc2c(ccc3c(CCC4CCN(Cc5ccccc5)CC4)noc23)N1 [CHEMBL95020]	8.444
O=C1c2ccc([N+](=O)[O-])cc2C(=O)N1CCC1CCN(Cc2ccccc2)CC1 [CHEMBL105874]	7.903
O=C(c1ccc([N+](=O)[O-])cc1)N(CCC1CCN(Cc2ccccc2)CC1)c1ccccc1 [CHEMBL126354]	8.268
COc1cccc(N(CCC2CCN(Cc3ccccc3)CC2)C(C)=O)c1 [CHEMBL127527]	7.337
O=C(Nc1ccc2c(c1)C(=O)N(CCC1CCN(Cc3ccccc3)CC1)C2=O)c1ccccc1 [CHEMBL138107]	8.921
Nc1cccc2c1C(=O)N(CCC1CCN(Cc3ccccc3)CC1)C2=O [CHEMBL138442]	7.959
O=c1[nH]c2cc(Cl)ccc2c(=O)n1CCC1CCN(Cc2ccccc2)CC1 [CHEMBL138552]	8.347
O=C1c2cccnc2C(=O)N1CCC1CCN(Cc2ccccc2)CC1 [CHEMBL140106]	7.886
O=c1c2ccccc2ncn1CCC1CCN(Cc2ccccc2)CC1 [CHEMBL140328]	5.921
O=C(c1ccc(F)cc1)N(CCC1CCN(Cc2ccccc2)CC1)c1ccccc1 [CHEMBL140737]	7.745
COc1ccc2c(c1)C(=O)N(CCC1CCN(Cc3ccccc3)CC1)C2=O [CHEMBL140770]	8.097
O=C1Cc2ccccc2CN1CCC1CCN(Cc2ccccc2)CC1 [CHEMBL140990]	7.77
O=C(c1ccccc1)c1ccc2c(c1)C(=O)N(CCC1CCN(Cc3ccccc3)CC1)C2=O [CHEMBL140999]	8.62
O=C1c2cccc([N+](=O)[O-])c2C(=O)N1CCC1CCN(Cc2ccccc2)CC1 [CHEMBL141001]	8.046
O=C1Cc2ccccc2C(=O)N1CCC1CCN(Cc2ccccc2)CC1 [CHEMBL141042]	7.638
CC(=O)N(CCC1CCN(Cc2ccccc2)CC1)c1cccc(F)c1 [CHEMBL141167]	7.187

Structure (SMILES)	Exp. pIC50
O=c1c2ccccc2ccn1CCC1CCN(Cc2ccccc2)CC1 [CHEMBL141203]	5.959
O=C1Nc2ccccc2CN1CCC1CCN(Cc2ccccc2)CC1 [CHEMBL141276]	7.886
O=C(Nc1cccc2c1C(=O)N(CCC1CCN(Cc3ccccc3)CC1)C2=O)c1ccccc1 [CHEMBL141622]	6.469
COc1ccc(N(CCC2CCN(Cc3ccccc3)CC2)C(C)=O)cc1 [CHEMBL141801]	6.155
O=C1c2ccccc2NCN1CCC1CCN(Cc2ccccc2)CC1 [CHEMBL141810]	6.097
CCC(=O)N(CCC1CCN(Cc2ccccc2)CC1)c1ccccc1 [CHEMBL141853]	6.081
COc1ccc(C(=O)N(CCC2CCN(Cc3ccccc3)CC2)c2ccccc2)cc1 [CHEMBL141873]	6.229
O=C1c2ccccc2CCN1CCC1CCN(Cc2ccccc2)CC1 [CHEMBL142014]	6
O=C(CCC1CCN(Cc2ccccc2Cl)CC1)c1ccc2c(c1)CCN2 [CHEMBL306175]	7.119
Cc1cccc(CN2CCC(CCC(=O)c3ccc4c(c3)CCN4)CC2)c1 [CHEMBL306179]	7.301
COc1ccccc1CN1CCC(CCC(=O)c2ccc3c(c2)CCN3)CC1 [CHEMBL306776]	6.09
CCCN1CCCCc2ccc(C(=O)CCC3CCN(Cc4ccccc4)CC3)cc21 [CHEMBL307513]	5.876
O=C(CCC1CCN(Cc2cccc([N+](=O)[O-])c2)CC1)c1ccc2c(c1)NCCCC2 [CHEMBL307832]	6.409
O=C(CCC1CCN(Cc2cccc(F)c2)CC1)c1ccc2c(c1)NCCCC2 [CHEMBL308093]	6.839
CCN1CCc2cc(C(=O)CCC3CCN(Cc4ccccc4)CC3)ccc21 [CHEMBL308793]	7.959
O=C(CCC1CCN(Cc2cccc(F)c2)CC1)c1ccc2c(c1)CCN2 [CHEMBL308807]	7.796
COc1ccccc1CN1CCC(CCC(=O)c2ccc3c(c2)NCCCC3)CC1 [CHEMBL309173]	5.576
CCN1CCCCc2ccc(C(=O)CCC3CCN(Cc4ccccc4)CC3)cc21 [CHEMBL310467]	6.425
CN1CCc2cc(C(=O)CCC3CCN(Cc4ccccc4)CC3)ccc21 [CHEMBL311017]	8
O=C1Cc2cc3onc(CCC4CCN(Cc5ccccc5)CC4)c3cc2N1 [CHEMBL328468]	9.022
O=C1CCc2cc3c(CCC4CCN(Cc5ccccc5)CC4)noc3cc2N1 [CHEMBL329231]	9.244
Brc1ccc2c(CCC3CCN(Cc4ccccc4)CC3)noc2c1 [CHEMBL330004]	7.301

Structure (SMILES)	Exp. pIC50
O=C1c2ccccc2CN1CCC1CCN(Cc2ccccc2)CC1 [CHEMBL333909]	7.009
O=C(c1ccncc1)N(CCC1CCN(Cc2ccccc2)CC1)c1ccccc1 [CHEMBL340621]	7.194
O=C1Cc2cc3c(CCC4CCN(Cc5ccccc5)CC4)noc3cc2N1 [CHEMBL359570]	9.481
O=C(CCC1CCN(Cc2cccc(Cl)c2)CC1)c1ccc2c(c1)NCCCC2 [CHEMBL420378]	6.478
Cc1ccc2onc(CCC3CCN(Cc4ccccc4)CC3)c2c1 [CHEMBL433379]	8.108
CC(=O)Nc1ccc2c(c1)C(=O)N(CCC1CCN(Cc3ccccc3)CC1)C2=O [CHEMBL433678]	8.553
O=C(CCC1CCN(Cc2ccccc2)CC1)c1ccc2c(c1)OCO2 [CHEMBL1082434]	7.523
CCn1c(C)nc2cc(C(=O)CCC3CCN(Cc4ccccc4)CC3)ccc21 [CHEMBL1082435]	8.367
O=C(CCC1CCN(Cc2ccccc2)CC1)c1ccc2[nH]c(-c3ccccc3)nc2c1 [CHEMBL1082436]	7.481
CN(CCCCCNc1ccc(-c2ccccc2)nn1)Cc1ccccc1 [CHEMBL1083057]	6.131
c1ccc(CN2CCC(Nc3ccc(-c4ccccc4)nn3)CC2)cc1 [CHEMBL1083058]	4.187
c1ccc(CN2CCC(CNc3ccc(-c4ccccc4)nn3)CC2)cc1 [CHEMBL1083367]	4.252
CN1CCCc2cc(C(=O)CCC3CCN(Cc4ccccc4)CC3)ccc21 [CHEMBL1083660]	7.62
O=C(CCC1CCN(Cc2ccccc2)CC1)c1ccc2c(c1)CCCN2 [CHEMBL1083661]	7.268
O=C(CCC1CCN(Cc2ccccc2)CC1)c1ccc2c(c1)CCCN2c1ccccc1 [CHEMBL1083662]	7.268
O=C(Nc1ccccc1)c1ccc2c(c1)C(=O)N(CCC1CCN(Cc3ccccc3)CC1)C2=O [CHEMBL1084256]	8.658
CN(CCCCNc1ccc(-c2ccccc2)nn1)Cc1ccccc1 [CHEMBL1084257]	4.959
Cc1nc2ccc(C(=O)CCC3CCN(Cc4ccccc4)CC3)cc2s1 [CHEMBL1084275]	8.167
Cc1nc2ccc(C(=O)CCC3CCN(Cc4ccccc4)CC3)cc2[nH]1 [CHEMBL1084790]	7.921
O=C(CCC1CCN(Cc2ccccc2)CC1)c1ccc2c(c1)CCN2c1ccccc1 [CHEMBL1085858]	7.167
CN(CCNc1ccc(-c2ccccc2)nn1)Cc1ccccc1 [CHEMBL1086185]	3.77

System: bAchE
Test: not given
Conditions: read-out: bAchE IC50; Tacrine (Ellman method); source not given; cited from earlier work

Structure (SMILES)	IC50 [nM]
Nc1c2c(nc3ccccc13)CCCC2 [Tacrine]	58
